In brackets after ≈: the same amount, converted by molar mass. Where two headings read alike, the source gives them in different places.
Tests used:
[1] = test system: Wild Strain General Bacteria; assay: MIC, microtiter plate, general aerobic bacteria from produced water; format: cell-based, Pseudomonas aeruginosa and Enterobacter aggolomerans
Description: (§1) The ability of an BF to inhibit microorganisms was investigated. Specifically, three bacteria types were tested to compare the MIC of a biocide, a biochelant and IBFs of the present disclosure. The bacteria types utilized were isolated from produced water from the Marcellus shale formation, and identified as (i) general aerobic bacteria identified as Pseudomonas aeruginosa and Enterobacter aggolomerans (ii) Wild strain sulfate reducing bacteria and (iii) acid producing bacteria. General aerobic bacteria aid in the formation of biofilms. Most of these bacteria will be found either floating freely in water (planktonic organisms) or will be attached to various surfaces (sessile organisms). Wild strain Sulfate Reducing Bacteria and Acid Producing Bacteria isolated from the produced fluid was also used. Wild strain Sulfate Reducing Bacteria (WSRB) are the most common anaerobic organisms found in the oil and gas industry. WSRB are an issue as they will reduce sulfate into sulfides which can turn into hydrogen sulfide, souring the fluid in the oil and gas well.
(§2) The bacteria tested were placed in a microtiter plate, where a high throughput test was performed to determine MIC (minimum inhibitor concentration). […] The BE contained 1:1 biocide:biochelant each at 50 ppm.

Wild Strain APB = assay: MIC, microtiter plate, wild strain acid producing bacteria; format: cell-based
Description: as §1, §2

Wild Strain SRB = assay: MIC, microtiter plate, wild strain sulfate reducing bacteria; format: cell-based
Description: as §1, §2

[2] = test system: General Wild Strain Bacteria; assay: MIC, Example 2, TTPC and bleach; format: cell-based
Text: The biocides used were tributyl tetradecyl phosphonium chloride (TTPC, BELLACIDE 350) and household bleach.

Pseudomonas aeruginosa = assay: MIC, Example 3, quaternary ammonium biocides
Description: (§3) The ability of an IBF to inhibit microorganisms was investigated. The biocides used as components of the IBF were quaternary ammonium compounds. […] The bacterial strains tested were Pseudomonas aeruginosa, Staphylococcus aureus, Escherichia coli and Klebsiella pneumoniae.

Staphylococcus aureus = assay: MIC, Example 3, quaternary ammonium biocides
Description: as §3

Escherichia coli = assay: MIC, Example 3, quaternary ammonium biocides
Description: as §3

Klebsiella pneumoniae = assay: MIC, Example 3, quaternary ammonium biocides
Description: as §3

[3] = test system: bacteria isolated from produced water from the Marcellus shale formation; assay: MIC, Example 1, maximum reduction over the three bacteria types; format: cell-based; settings: biocide used in conjunction with biochelants, versus biocide alone
Description: as §1, §2

[4] = Wild Strain General Bacteria, IBF 1:1 biocide:biochelant, read-out: MIC
[5] = Wild Strain APB, IBF 1:1 biocide:biochelant, read-out: MIC
[6] = General Wild Strain Bacteria, read-out: MIC

Row | Compound | MIC [1, 4] [µg/mL] | MIC (Wild Strain APB; [5]) [µg/mL] | MIC (Pseudomonas aeruginosa) [µg/mL] | MIC (Staphylococcus aureus) [µg/mL] | MIC (Escherichia coli) [µg/mL] | MIC (Klebsiella pneumoniae) [µg/mL] | MIC [2, 6] [µg/mL] | maximum MIC reduction [3] [%] | also measured
1 | O=CCCCC=O [50% Glut, glutaraldehyde] | 1000 (≈ 9.99 mM) | 500 (≈ 4.99 mM) | – | – | – | – | – | – | –
2 | O=C(O)[C@H](O)[C@@H](O)[C@H](O)[C@H](O)CO [G050, gluconic acid] | – | – | 5000 (≈ 25.5 mM) | 5000 (≈ 25.5 mM) | 5000 (≈ 25.5 mM) | 5000 (≈ 25.5 mM) | – | – | MIC [1]: 10000 µg/mL (≈ 51 mM); MIC (Wild Strain SRB): 312 µg/mL (≈ 1.59 mM); MIC (Wild Strain APB): 625 µg/mL (≈ 3.19 mM); MIC [2]: 10000 µg/mL (≈ 51 mM)
3 | O=C(O)[C@@H](O)[C@@H](O)[C@H](O)[C@@H](O)C(=O)O [GA50, glucaric acid] | 2500 (≈ 11.9 mM) | 625 (≈ 2.97 mM) | 1250 (≈ 5.95 mM) | 5000 (≈ 23.8 mM) | 625 (≈ 2.97 mM) | 1250 (≈ 5.95 mM) | 2500 (≈ 11.9 mM) | – | –
4 | CCCCCCCCCCCCCC[P+](CCCC)(CCCC)CCCC.[Cl-] [Bellacide 350 (TTPC), tributyl tetradecyl phosphonium chloride] | – | – | – | – | – | – | 500 | – | MIC ([2]; General Wild Strain Bacteria, with biochelant, read-out: MIC of the biocide as a component of an IBF): 15.6 µg/mL
5 | tetrakis hydroxymethyl-phosphonium sulfate [75% THPS] | – | – | – | – | – | – | – | 97 | MIC ([1]; Wild Strain General Bacteria, IBF 1:1 biocide:biochelant): 1000 ppm; MIC (Wild Strain SRB; Wild Strain SRB, IBF 1:1 biocide:biochelant): 1000 ppm; MIC (Wild Strain APB; Wild Strain APB, IBF 1:1 biocide:biochelant): 62.5 ppm
6 | O=[N+]([O-])C(Br)(CO)CO [10% BRONOPOL, 2-bromo-2-nitro-1,3-propanediol] | 125 (≈ 0.625 mM) | 62.5 (≈ 0.313 mM) | – | – | – | – | – | 98 | –

Reference: patent US20260231947A1, “IMPROVED BIOCIDE COMPOSITIONS” (Solugen, Inc., priority 2021, published 2026)
